Measured values published in patent US7241783B2, “Thrombopoietin mimetics” (SmithKline Beecham Corporation, priority 2000, dated 2007).
Read-outs that look alike come from different tables or passages of the source. One block for each compound: values may come before it.

What was measured:
[1] = system: BAF-3/TPO-responsive human cell lines; assay: proliferation of BAF-3/TPO-responsive human cell lines (Table 1); format: cell-based
TPO receptor = target: T1, TPO receptor (Homo sapiens, UniProt P40238); assay: Luciferase assay in TPO-responsive BaF3 cell line; format: cell-based, murine; conditions: at a concentration of 3 uM
T1 construct: expressed in transfected cells; host or cells: murine BaF3 cells (TPO-responsive line)
T1 sequence (P40238 26-635): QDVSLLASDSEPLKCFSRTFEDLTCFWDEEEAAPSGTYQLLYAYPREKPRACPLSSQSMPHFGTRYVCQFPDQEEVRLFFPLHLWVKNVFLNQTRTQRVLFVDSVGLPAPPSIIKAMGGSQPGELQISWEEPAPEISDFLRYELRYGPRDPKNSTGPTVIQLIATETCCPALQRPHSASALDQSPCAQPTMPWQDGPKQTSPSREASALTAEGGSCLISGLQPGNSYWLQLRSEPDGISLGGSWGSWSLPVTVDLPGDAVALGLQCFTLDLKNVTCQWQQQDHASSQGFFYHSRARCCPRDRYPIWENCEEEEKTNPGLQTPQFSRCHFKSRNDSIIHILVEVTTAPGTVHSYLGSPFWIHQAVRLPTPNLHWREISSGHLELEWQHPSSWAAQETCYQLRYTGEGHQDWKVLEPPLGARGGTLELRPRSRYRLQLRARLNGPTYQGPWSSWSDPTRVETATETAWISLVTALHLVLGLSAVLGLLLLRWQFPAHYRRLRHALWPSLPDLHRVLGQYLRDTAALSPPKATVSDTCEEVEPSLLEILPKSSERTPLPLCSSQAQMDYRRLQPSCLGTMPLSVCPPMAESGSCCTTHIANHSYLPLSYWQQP
Description: Compounds of the present invention were tested for potency as mimetics of the TPO receptor in a Luciferase assay such as described in Lamb, et al., Nucleic Acids Research 23: 3283–3289 (1995) and Seidel, et al., Proc. Natl. Acad. Sci., USA 92: 3041–3045 (1995) by substituting a TPO-responsive BaF3 cell line (Vigon et al. Proc. Natl. Acad. Sci. USA 1992, 89, 5640–5644) for the HepG2 cells utilized therein. The murine BaF3 cells express TPO receptors and closely match the pattern of STAT (signal transducers and activators of transcription) activation observed in primary murine and human bone marrow cells in response to TPO.

Compound: Cc1ccc(-n2nc(C)c(C=NNC(=S)Nc3cccc(C(=O)O)c3)c2O)cc1 [Example 15.30, 4-(3-carboxyphenyl)-1-[{5-hydroxy-3-methyl-1-(4-methylphenyl)pyrazol-4-yl}methylene]-3-thiosemicarbazide]
Efficacy/%TPOmax [1]: 100 %TPOmax
EC50 ([1]; BaF3): 30 nM

activation, % of control (control is the maximal response to TPO) (TPO receptor): about 20 % of control
Compound: Cc1ccc(-c2cccc(C=NNC(=S)Nc3cccc(C(=O)O)c3)c2O)cc1C [Example 15.8, 4-(3-carboxyphenyl)-1-[3-(3,4-dimethylphenyl)-2-hydroxybenzylidene]-3-thiosemicarbazide]
Efficacy/%TPOmax [1]: 90 %TPOmax
EC50 ([1]; BaF3): 30 nM

Compound: O=C(O)c1cccc(NC(=S)NN=Cc2cccc(-c3cccc(C(F)(F)F)c3)c2O)c1 [Example 15.10, 4-(3-carboxyphenyl)-1-[2-hydroxy-3-(3-trifluoromethylphenyl)benzylidene]-3-3-thiosemicarbazide]
EC50 [1]: 50 nM
Efficacy/%TPOmax [1]: 100 %TPOmax

Compound: Cc1ccc(-n2nc(C)c(C=NNC(=S)Nc3ccc(C(=O)O)cc3)c2O)cc1 [Example 15.29, 4-(4-carboxyphenyl)-1-[{5-hydroxy-3-methyl-1-(4-methylphenyl)pyrazol-4-yl}methylene]-3-thiosemicarbazide]
Efficacy/%TPOmax [1]: 100 %TPOmax
EC50 ([1]; BaF3): 30 nM

Compound: Cc1nn(-c2cccc(Cl)c2)c(O)c1C=NNC(=S)Nc1ccc(C(=O)O)cc1 [Example 15.31, 4-(4-carboxyphenyl)-1-[{1-(3-chlorophenyl)-5-hydroxy-3-methylpyrazol-4-yl}methylene]-3-thiosemicarbazide]
Efficacy/%TPOmax [1]: 100 %TPOmax
EC50 ([1]; BaF3): 30 nM

Compound: O=C(O)c1cccc(NC(=S)NN=Cc2cccc(-c3ccc(Cl)cc3)c2O)c1 [Example 15.12, 4-(3-carboxyphenyl)-1-[3-(4-chlorophenyl)-2-hydroxybenzylidene]-3-thiosemicarbazide]
Efficacy/%TPOmax [1]: 85 %TPOmax
EC50 ([1]; BaF3): 60 nM

Compound: O=C(O)c1ccc(NC(=S)NN=Cc2cccc(-c3cccc(C(F)(F)F)c3)c2O)cc1 [Example 15.9, 4-(4-carboxyphenyl)-1-[2-hydroxy-3-(3-trifluoromethylphenyl)benzylidene]-3-thiosemicarbazide]
Efficacy/%TPOmax [1]: 100 %TPOmax
EC50 ([1]; BaF3): 20 nM
